# Experimental data from ChEMBL document CHEMBL6096676, “TarIKGC: A Target Identification Tool Using Semantics-Enhanced Knowledge Graph Completion with Application to CDK2 Inhibitor Discovery” (J Med Chem, 2025).
# Tests used:
# PC-9 = assay: Antiproliferative activity against human PC-9 cells measured after 48 to 72 hrs by CCK-8 method
# AGS = assay: Antiproliferative activity against human AGS cells measured after 48 to 72 hrs by CCK-8 method
# MKN-28 = assay: Antiproliferative activity against human MKN-28 cells measured after 48 to 72 hrs by CCK-8 method
# SW-620 = assay: Antiproliferative activity against human SW620 cells measured after 48 to 72 hrs by CCK-8 method
# Huh-7 = assay: Antiproliferative activity against human Huh-7 cells measured after 48 to 72 hrs by CCK-8 method
# [1] = Antiproliferative activity against human THLE-2 cells measured after 48 to 72 hrs by CCK-8 method
# [2] = Antiproliferative activity against HEK293T cells measured after 48 to 72 hrs by CCK-8 method; settings: human
smiles,measurement,setting,value
COc1ccc(CNc2nc(N(CCO)CCO)nc3c2ncn3C(C)C)cc1,IC50,PC-9,7.28 µM
same,IC50,AGS,6.84 µM
same,IC50,MKN-28,8.73 µM
same,IC50,SW-620,2070 nM
same,IC50,Huh-7,5.78 µM
same,IC50,[1],15 µM
same,IC50,[2],11.5 µM
